Laboratory results taken from paper PMC9025941, “Influence of the Type of Amino Acid on the Permeability and Properties of Ibuprofenates of Isopropyl Amino Acid Esters” (International Journal of Molecular Sciences, 2022).
Several values for one entry are separate records, joined by “and”; a condition that tells them apart may be missing. Equal entries are not always repeated. Where two headings read alike, the source gives them in different places. Marks after values point to notes of the source that are not given here.

Tests used:
[1] = Thermal stability (TG/DTG): decomposition onset and maximum mass-loss rate temperature
Protocol: In Figure 5, the thermal stability of ibuprofen and amino acid isopropyl ester ibuprofenates was determined and compared. All TG, DTG, and c-DTA curves are in the Supplementary Materials (Figures S87–S100). The decomposition onset temperature (Tonset) and the temperature of the maximum rate of mass loss (Tmax) were determined.

[2] = In vitro skin permeation, Franz diffusion cells; conditions: for Q%24 h, the percentage of the applied dose permeated after 24 h / Cumulative Permeation Mass / LT, lag time: n = 3; for Q%24 h, the percentage of the applied dose permeated after 24 h / Cumulative Permeation Mass: 24 h; for EF, enhancement factor: relative to IBU; for JSS, steady-state flux: saturated solution in PBS pH 7.4, n = 3
[3] = n-octanol-water partition coefficient, shake flask method; conditions: for Log P (n-octanol-water partition coefficient): shake flask, 25 °C
[4] = 24 h penetration, n = 3
[5] = Solubility in organic solvents by modified Vogel's method; conditions: 25 °C
[6] = Solubility (saturation concentration) in deionised water and PBS pH 7.4, HPLC; conditions: for Solubility in Phosphate Buffer pH = 7.4: PBS pH 7.4, 32 °C; for Solubility in Water: 25 °C
[7] = shake flask; cited from earlier work
[8] = cited from earlier work; for Solubility in Phosphate Buffer pH = 7.4: PBS pH 7.4, 32 °C; for Solubility in Water: 25 °C
[9] = 25 °C; cited from earlier work
[10] = parameters: method as in PMID 35516534; conditions: determined log P range; cited from earlier work
[11] = 37 °C, cited from earlier work
[12] = pH 7.4
[13] = saturated solution in PBS pH 7.4, mass of compound
[14] = saturated solution in PBS pH 7.4, mass of ibuprofen

Row | SMILES | Tonset, the onset temperature of the thermal degradation [1] | Q%24 h, the percentage of the applied dose permeated after 24 h [2] | Cumulative Permeation Mass [2, 13] | Cumulative Permeation Mass [2, 14] | LT, lag time [2] | EF, enhancement factor [2] | JSS, steady-state flux [2] | Log P (n-octanol-water partition coefficient) [3] | Accumulation in the skin [4] | Solubility in DMSO [5] | Solubility in chloroform [5] | Solubility in dichloromethane [5] | Solubility in diethyl ether [5] | Solubility in ethanol [5] | Solubility in ethyl acetate [5] | Solubility in n-hexane [5] | Solubility in toluene [5] | Solubility in Phosphate Buffer pH = 7.4 ([6]; g of active compound (IBU)) | Solubility in Phosphate Buffer pH = 7.4 ([6]; g of compound) | Solubility in Water ([6]; g of active compound (IBU)) | other results
1 | CC(C)Cc1ccc(C(C)C(=O)O)cc1.CC(C)OC(=O)C[C@H](N)C(=O)OC(C)C [[L-Asp(OiPr)2][IBU], L-aspartic acid isopropyl ester ibuprofenate] | 141.7 °C | 27.307 ± 2.851% | 812.658 ± 12.545 ^b µg·cm^−2 | 395.800 ± 41.320 ^b µg IBU·cm^−2 | 1.010 ± 0.054 h | 3.69 | 55.063 ± 1.425 µg IBU cm^−2 h^−1 | 1.506 ± 0.001 | 406.961 ± 17.799 µg IBU g^−1 | + (soluble >100 mg cm^−3) | + (soluble >100 mg cm^−3) | + (soluble >100 mg cm^−3) | +/− (partially soluble 33–100 mg cm^−3) | + (soluble >100 mg cm^−3) | + (soluble >100 mg cm^−3) | − (insoluble <33 mg cm^−3) | + (soluble >100 mg cm^−3) | 1.449 ± 0.009 g IBU∙dm^−3 | 2.976 ± 0.018 g∙dm^−3 | 1.159 ± 0.001 g IBU∙dm^−3 | Solubility in Water ([6]; g of compound): 2.380 ± 0.003 g∙dm^−3
2 | CC(C)Cc1ccc(C(C)C(=O)O)cc1.CC[C@H](C)[C@H](N)C(=O)OC(C)C [[L-IleOiPr][IBU], L-isoleucine isopropyl ester ibuprofenate] | 105.2 °C | 2.318 ± 0.118% | 173.888 ± 8.815 ^b µg·cm^−2 | 94.512 ± 4.791 ^b µg IBU·cm^−2 | 1.617 ± 0.057 h | 0.31 | 9.545 µg IBU cm^−2 h^−1 and 9.545 ± 0.239 µg IBU cm^−2 h^−1 | 1.652 ± 0.008 | 646.293 ± 123.070 µg IBU g^−1 | + (soluble >100 mg cm^−3) | + (soluble >100 mg cm^−3) | + (soluble >100 mg cm^−3) | +/− (partially soluble 33–100 mg cm^−3) | + (soluble >100 mg cm^−3) | + (soluble >100 mg cm^−3) | − (insoluble <33 mg cm^−3) | + (soluble >100 mg cm^−3) | 2.562 ± 0.010 g IBU∙dm^−3 | 4.713 ± 0.018 g∙dm^−3 | 1.483 ± 0.098 g IBU∙dm^−3 | Solubility in Water ([6]; g of compound): 2.729 ± 0.180 g∙dm^−3
3 | CC(C)Cc1ccc(C(C)C(=O)O)cc1.CC(C)OC(=O)[C@@H](N)C(C)C [[L-ValOiPr][IBU], L-valine isopropyl ester ibuprofenate] | – | 13.698 ± 1.123% | 684.642 ± 56.109 ^b µg·cm^−2 | 386.391 ± 31.666 ^b µg IBU·cm^−2 | – | 1.85 | 43.749 ± 2.445 µg IBU cm^−2 h^−1 | – | – | – | – | – | – | – | – | – | – | – | – | – | Log P (n-octanol-water partition coefficient) [7]: 1.154 ± 0.004 [31]; Solubility in Phosphate Buffer pH = 7.4 ([8]; g of active compound (IBU)): 2.821 ± 0.018 [31] g IBU∙dm^−3; Solubility in Phosphate Buffer pH = 7.4 ([8]; g of compound): 4.998 ± 0.018 [31] g∙dm^−3; Solubility in Water ([8]; g of active compound (IBU)): 1.957 ± 0.007 [31] g IBU∙dm^−3; Solubility in Water ([8]; g of compound): 3.468 ± 0.007 [31] g∙dm^−3; Solubility in DMSO [9]: + [31] (soluble >100 mg cm^−3); Solubility in chloroform [9]: + [31] (soluble >100 mg cm^−3); Solubility in dichloromethane [9]: + [31] (soluble >100 mg cm^−3); Solubility in diethyl ether [9]: +/− [31] (partially soluble 33–100 mg cm^−3); Solubility in ethanol [9]: + [31] (soluble >100 mg cm^−3); Solubility in ethyl acetate [9]: +/− [31] (partially soluble 33–100 mg cm^−3); Solubility in n-hexane [9]: − [31] (insoluble <33 mg cm^−3); Solubility in toluene [9]: + [31] (soluble >100 mg cm^−3)
4 | CC(C)Cc1ccc(C(C)C(=O)O)cc1 (racemic) [IBU, (RS)-2-(4-(2-methylpropyl)phenyl)propanoic acid, reference compound] | – | 7.408 ± 0.648% | 32.001 ± 3.167 ^a µg·cm^−2 | 32.001 ± 2.801 ^a µg IBU·cm^−2 | 1.399 ± 0.145 h | 1.00 | 3.017 ± 0.209 µg IBU cm^−2 h^−1 | – | – | – | – | – | – | – | – | – | – | – | – | – | log P [10]: 2.41–4.00; solubility ([11]; pH 1): 0.038 mg·cm^−3; solubility ([11]; pH 4.5): 0.084 mg·cm^−3; solubility ([11]; pH 5.5): 0.685 mg·cm^−3; solubility ([11]; pH 6.8): 3.37 mg·cm^−3; Tonset, the onset temperature of the thermal degradation ([1]; TG): 189.8 °C; Papp ([2]; pig, pH 7.4): 1.94 ×10⁻⁶ cm/s; JSS, steady-state flux ([2]; listed as ibuprofen): 3.017 µg IBU cm^−2 h^−1; logP at 3 h ([3]; n-octanol/water): 3.208 ± 0.002
5 | CC(C)Cc1ccc(C(C)C(=O)O)cc1.CSCC[C@H](N)C(=O)OC(C)C [[L-MetOiPr][IBU], L-methionine isopropyl ester ibuprofenate] | 146.2 °C | – | – | – | – | – | – | – | – | – | – | – | – | – | – | – | – | – | – | – | JSS, steady-state flux [12]: 25.312 ± 0.661 µg IBU cm^−2 h^−1
